PubChem BioAssay AID1996
Converted amounts (≈) assume the structure as drawn.

Conditions: buffer; pH 7.4; 200.0 µM

Row | Structure (SMILES) | solubility kinetic
1 | CN(C)CCCNC(=O)c1ccccc1Oc1ccccc1 | > 44.8 µg/mL
2 | CN(Cc1ccccc1)c1cc(Cl)nc(N)n1 | 21.5 µg/mL (≈ 86.4 µM)
3 | O=C(C1CCCCC1)N1CCc2[nH]c3ccc(F)cc3c2C1 | 0.4 µg/mL (≈ 1.33 µM)
4 | CCN(c1ccccc1)S(=O)(=O)c1ccc(C(=O)Nc2cccc(NC(C)=O)c2)cc1 | 3.7 µg/mL (≈ 8.46 µM)
5 | O=C(Cc1ccccc1[N+](=O)[O-])NC1CC2CCC1C2 (stereo not given) | > 41.1 µg/mL
6 | CNC(=O)COC(=O)COc1ccc2c(C)cc(=O)oc2c1 | > 45.8 µg/mL
7 | CCc1ccc(OCC(=O)N2CCc3ccccc32)cc1 | 0.9 µg/mL (≈ 3.2 µM)
8 | COc1cccc(C2(C)NC(=O)N(CC(=O)Nc3ccc(N4CCOCC4)cc3)C2=O)c1 (stereo not given) | 57.7 µg/mL (≈ 132 µM)
9 | O=c1[nH]c(/C=C\c2ccccc2F)nc(O)c1[N+](=O)[O-] | > 41.6 µg/mL
10 | O=C(COC(=O)c1ccccn1)NCCc1ccc(Cl)cc1 | > 47.8 µg/mL
11 | N#Cc1c(Nc2ccc(Cl)cc2)s[nH]c1=O | > 37.8 µg/mL
12 | Cc1ccc(N2C(=O)CS/C2=N\C(=S)Nc2ccccc2)cc1 | 1 µg/mL (≈ 2.93 µM)
13 | CCn1c(=O)c([N+](=O)[O-])c(NCc2ccco2)c2ccccc21 | 0.6 µg/mL (≈ 1.92 µM)
14 | COCc1cc(C)nc(SCC(=O)Oc2ccc(Cl)cc2)c1C#N | 9.4 µg/mL (≈ 25.9 µM)
15 | Cc1ccc(Nc2c(F)c(F)c(F)c(F)c2C(=O)O)c(C)c1 | 40.4 µg/mL (≈ 129 µM)
16 | Cc1c(NCc2cccnc2)cccc1C(=O)O | > 36.3 µg/mL
17 | COc1ccc(S(=O)(=O)Nc2ncccc2C)c2ccccc12 | 37.6 µg/mL (≈ 114 µM)
18 | OCC1OC(Oc2c[nH]c3ccccc23)C(O)C(O)C1O (stereo not given) | > 44.3 µg/mL
19 | CN(CC(=O)O)S(=O)(=O)c1ccc2c(c1)n(C)c(=O)c(=O)n2C | > 51.2 µg/mL
20 | Cc1sc(NC(=O)/C=C/c2ccco2)c(C(=O)O)c1C | 40.9 µg/mL (≈ 140 µM)
21 | O=C(NC(=S)Nc1cccc2c(O)cccc12)c1ccco1 | 9.3 µg/mL (≈ 29.8 µM)
22 | O=C(NC(=S)N1CCCC1)c1ccccc1Cl | 35.7 µg/mL (≈ 133 µM)
23 | COCCNC(=S)N1CCN(Cc2cccc(OC)c2)CC1 | 42.5 µg/mL (≈ 131 µM)
24 | CC(=O)c1cccc(NC(=O)COC(=O)CCC(=O)c2ccc(F)cc2)c1 | 53.9 µg/mL (≈ 145 µM)

Row | Structure (SMILES) | solubility kinetic
25 | Cc1ccc(NC(=S)N(Cc2ccccc2)C(C)C)cc1 | 7.6 µg/mL (≈ 25.5 µM)
26 | CC(=O)Nc1ccc(OC(=O)N2CCCC2)cc1 | > 37.2 µg/mL
27 | CC(=O)c1cccc(NC(=O)COc2ccc3oc(=O)cc(C)c3c2)c1 | 1.4 µg/mL (≈ 3.98 µM)
28 | CC(=O)N(c1nc(CCl)cs1)c1cccc(C)c1C | > 44.2 µg/mL
29 | COc1ccccc1NS(=O)(=O)c1ccc(C(=O)NCc2ccc(S(N)(=O)=O)cc2)cc1 | 20.3 µg/mL (≈ 42.7 µM)
30 | O=S(=O)(Oc1ccccc1N1CCCCC1)c1ccccc1 | 2.3 µg/mL (≈ 7.25 µM)
31 | COc1cc2c(cc1OC)/C(=C/C(=O)c1ccc(C)cc1)NCC2 | 24.8 µg/mL (≈ 76.7 µM)
32 | Cl.c1ccc(Cc2ccc(OCCn3ccnc3)cc2)cc1 | 41.3 µg/mL
33 | Cc1cc(C)nc(/N=C(\N)Nc2ccc(C(C)C)cc2)n1 | > 42.5 µg/mL
34 | CC(C)C1Cc2[nH]c(=O)c(C#N)cc2CO1 (stereo not given) | > 32.7 µg/mL
35 | CCOP(=O)(c1ccc(N(C)C)cc1)C(O)c1cccnc1 (stereo not given) | > 48 µg/mL
36 | Cc1ccc(NC2(C#N)C(=O)Nc3ccccc32)cc1C (stereo not given) | 23.3 µg/mL (≈ 84 µM)
37 | Cc1nc(SCc2ccccc2)c2ccsc2n1 | < 0.3 µg/mL
38 | COc1ccccc1CNC(=O)C(CCSC)NC(=O)c1cccc(S(=O)(=O)N2CCOCC2)c1 (stereo not given) | 3.4 µg/mL (≈ 6.52 µM)
39 | N#CCc1ccc(OC(=O)c2ccncc2)cc1 | > 35.7 µg/mL
40 | COc1ccc(CCNC(=O)C2C3CCC(C3)C2C(=O)O)cc1OC (stereo not given) | 43.7 µg/mL (≈ 126 µM)
41 | Cc1ccc(C)c(NC(=O)C2COc3ccccc3O2)c1 (stereo not given) | 3.5 µg/mL (≈ 12.4 µM)
42 | Cc1cccc(CSc2nc3c(c(-c4cccs4)c2C#N)CN(C)CC3)c1 | 5.8 µg/mL (≈ 14.8 µM)
43 | Cc1cc(NC(=O)CSCc2ccc([N+](=O)[O-])cc2)no1 | 24.6 µg/mL (≈ 80 µM)
44 | Cc1ccc(C(=O)OCC(=O)N2CCOCC2)c(C)c1 | 34 µg/mL (≈ 123 µM)
45 | Cc1cc(C(=O)Nc2sccc2C(N)=O)c(C)o1 | 27.1 µg/mL (≈ 103 µM)
46 | CCOc1ccc(NC(=S)c2ccc3ccccc3n2)cc1 | < 0.3 µg/mL
47 | COc1ccccc1Nc1c2c(nc3ccccc13)CCC2 | 37.4 µg/mL (≈ 129 µM)
48 | Cc1ccc2nc(NC(=O)COC(=O)c3cccnc3)sc2c1 | 7.5 µg/mL (≈ 22.9 µM)

Row | Structure (SMILES) | solubility kinetic
49 | Cc1ccc(CNC(=O)CCSCc2ccccc2F)cc1 | 11.8 µg/mL (≈ 37.2 µM)
50 | CN(C(=O)CSc1ncnc2ccccc12)C1CCCCC1 | 45.4 µg/mL (≈ 144 µM)
51 | O=C(Cc1ccc(Br)cc1)NCCN1CCOCC1 | > 49.1 µg/mL
52 | O=C(CCc1ccccc1)Nc1nccs1 | 17.9 µg/mL (≈ 77.1 µM)
53 | COc1ccc(/C=C/C(=O)Nc2cccnc2Cl)cc1 | 8.9 µg/mL (≈ 30.8 µM)
54 | COc1ccc(S(=O)(=O)N2CCN(C)CC2)cc1 | > 40.6 µg/mL
55 | CCOc1ccc(NC(=O)C2CCN(S(C)(=O)=O)CC2)cc1 | 20.2 µg/mL (≈ 61.9 µM)
56 | Cc1cc(C)nc(NC(=O)c2ccc(C)c(C)c2)n1 | 35.2 µg/mL (≈ 138 µM)
57 | COc1cc2ncnc(N[C@H](C)c3ccccc3)c2cc1OC | > 46.4 µg/mL
58 | O=C(O)C(=O)O.c1ccc(CCNC2CCCCCC2)cc1 | 45.3 µg/mL
59 | NC(=O)c1cc2cc(Cc3ccccc3Cl)ccc2oc1=O | 1.2 µg/mL (≈ 3.82 µM)
60 | COc1ccc(OC)c(NC(=S)N2CCN(C(=O)C3CCCO3)CC2)c1 (stereo not given) | > 56.9 µg/mL
61 | Cc1ccsc1C(=O)N1CCc2ccccc2C1 | > 38.6 µg/mL
62 | CCCNS(=O)(=O)c1ccc(OCC(=O)NCC2CCCO2)cc1 (stereo not given) | 51.2 µg/mL (≈ 144 µM)
63 | Cc1ccc([N+](=O)[O-])cc1NC(=S)NCCc1ccccc1 | 39.4 µg/mL (≈ 125 µM)
64 | CCCc1cnc(N2CCN(S(=O)(=O)c3cccs3)CC2)nc1 | < 0.2 µg/mL
65 | Cn1ccnc1Sc1ccc(C=O)cc1[N+](=O)[O-] | > 39.5 µg/mL
66 | O=C(COc1ccccc1)Nc1ccccc1F | 32.7 µg/mL (≈ 133 µM)
67 | CC(=O)N(Cc1ccccn1)Cc1ccco1 | > 34.5 µg/mL
68 | NC(=O)C1CCN(CC(=O)Nc2cccnc2Cl)CC1 | 44.1 µg/mL (≈ 149 µM)
69 | CCOC(=O)c1cc(NC(=O)N(C)C2CCCCC2)c(C)nc1C | > 50 µg/mL
70 | Cc1ccc(OCC(=O)N(C)C2CCCCC2)c([N+](=O)[O-])n1 | > 46.1 µg/mL
71 | O=C(NCC1CCCO1)c1cc(Br)c(Br)s1 (stereo not given) | > 55.4 µg/mL
72 | CC1=C(C#N)S(=O)(=O)C(C#N)C(c2ccccc2)C1 (stereo not given) | 30.1 µg/mL (≈ 111 µM)

Row | Structure (SMILES) | solubility kinetic
73 | COc1cccc2[nH]c3c(=O)n(CCCN4CCOCC4)cnc3c12 | > 51.4 µg/mL
74 | N/C(=N\OC(=O)c1cccs1)c1cccc(Br)c1 | 8.5 µg/mL (≈ 26.1 µM)
75 | Cc1ccc(CNC(=O)Nc2ccc(OC(F)(F)F)cc2)n1C | 9.4 µg/mL (≈ 28.7 µM)
76 | C=CCn1c(O)c(C(CC)=Nc2ccc(N(C)C)cc2)c(=O)[nH]c1=O | 1.5 µg/mL (≈ 4.38 µM)
77 | COc1ccccc1NC(=O)COC(=O)c1[nH]c(=O)[nH]c(=O)c1N | > 50.1 µg/mL
78 | O=C(O)COc1ccc(Br)cc1/C=N\Nc1ccccn1 | > 52.5 µg/mL
79 | O=S(=O)(Nc1ccccc1F)c1cccc(NC(=S)NCCN2CCOCC2)c1 | 51.6 µg/mL (≈ 118 µM)
80 | Cc1c(Cl)cccc1NC(=O)CCCN1C(=O)c2cccnc2C1=O | 39.5 µg/mL (≈ 110 µM)
81 | CN1CCN(c2ccc(C(=O)NC3CCCCC3)cc2[N+](=O)[O-])CC1 | 49.7 µg/mL (≈ 143 µM)
82 | CC(C)C(=O)NC(=O)COC(=O)/C=C/c1cccs1 | 21.6 µg/mL (≈ 76.8 µM)
83 | CCN(CC)C1CCN(c2nc3nonc3nc2NCCOC)C1 (stereo not given) | 46.8 µg/mL (≈ 140 µM)
84 | CCc1ccccc1NC(=O)NCc1ccccn1 | > 38.3 µg/mL
85 | CCN(CC)c1ccc(C(=O)N/N=C(\C)c2cccnc2)cc1 | > 46.6 µg/mL
86 | O=C(COc1ccccc1Cl)N1CCNC1=O | > 38.2 µg/mL
87 | Cc1cc(C(=O)OCC(=O)Nc2cccc([N+](=O)[O-])c2)c(C)o1 | 3.8 µg/mL (≈ 11.9 µM)
88 | Cc1cc(C)cc(NC(=O)CN2CCN(C(=O)C3CCCO3)CC2)c1 (stereo not given) | > 51.8 µg/mL
89 | COCc1cc(=O)[nH]c2cc(NC(=O)c3cccc(OC)c3)c(C)cc12 | 1.1 µg/mL (≈ 3.12 µM)
90 | CC(C)c1ccc(S(=O)(=O)N2CCN(C(=O)C3=COCCO3)CC2)cc1 | 18.3 µg/mL (≈ 48.1 µM)
91 | C(#CC12CC3CC(CC(C3)C1)C2)CN1CCOCC1 | 17.8 µg/mL (≈ 68.6 µM)
92 | CCCCCCCn1c(C)nnc1-c1cnn(C)c1N | > 41.5 µg/mL
93 | FC(F)(F)Sc1ccc(NC(=S)NCc2ccccc2)cc1 | < 0.4 µg/mL
94 | COc1ccccc1CNC(=O)COC(=O)c1ccc(C(=O)c2ccccc2)cc1 | 8.2 µg/mL (≈ 20.3 µM)
95 | CCCc1nnc(SCC(=O)Nc2cc(C)on2)n1CCOC | > 50.9 µg/mL
96 | CNC(=O)N1c2ccccc2C=Cc2ccccc21 | > 37.5 µg/mL

Row | Structure (SMILES) | solubility kinetic
97 | CCCCCC#CCN1CCN(C23CC4CC(CC(C4)C2)C3)CC1 | 42.8 µg/mL (≈ 130 µM)
98 | Cc1noc(C)c1C(=O)Nc1nc(-c2ccc(F)cc2)cs1 | 10.3 µg/mL (≈ 32.5 µM)
99 | Cc1ccc(C2N=C(N)Nc3nc4ccccc4n32)cc1 (stereo not given) | 35 µg/mL (≈ 126 µM)
100 | O=C(O)c1cccc(S(=O)(=O)Nc2ccc(Cc3ccncc3)cc2)c1 | > 55.3 µg/mL
101 | CC(CN1CCCC1)OC(=O)c1ccc(Cl)cc1Cl.Cl (stereo not given) | > 50.8 µg/mL
102 | CN(C)C1(CNC(=O)Nc2ccccc2)CCCCC1 | > 41.3 µg/mL
103 | CC(=O)Nc1ccc(S(=O)(=O)NCCN2CCNC2=O)cc1Cl | > 54.1 µg/mL
104 | Cc1cc(/C=C2\SC(=O)N(C)C2=O)c(C)n1-c1ccc(O)cc1 | 5.6 µg/mL (≈ 17.1 µM)
105 | CC1CCCC(NC(=O)COC(=O)COc2ccccc2Cl)C1C (stereo not given) | 31.1 µg/mL (≈ 87.9 µM)
106 | O=[N+]([O-])c1cccnc1N1CCCNCC1 | 30.4 µg/mL (≈ 137 µM)
107 | C=CCNc1nc(C)c(CNc2c(C)cc(C)cc2C)nc1C#N | 0.9 µg/mL (≈ 2.8 µM)
108 | CC1CC(C)CN(c2ncnc3c2cnn3C)C1 (stereo not given) | > 36.8 µg/mL
109 | COC(=O)c1ccsc1NC(=O)CS(=O)(=O)c1ccccc1 | > 50.9 µg/mL
110 | CN(C)S(=O)(=O)c1cccc(C(=O)NCCCn2ccnc2)c1 | > 50.5 µg/mL
111 | CCOc1ncccc1C(=O)Nc1ccccc1N1CCOCC1 | > 49.1 µg/mL
112 | NC(=O)c1ccccc1OCC(=O)N1CCc2ccccc2C1 | > 46.6 µg/mL
113 | Nc1ccc(Sc2ccccc2Cl)nc1 | > 35.5 µg/mL
114 | CC(=O)NC(c1ccccc1)c1cc(Cl)c2cccnc2c1O (stereo not given) | 0.4 µg/mL (≈ 1.22 µM)
115 | Cc1ccc(NS(=O)(=O)c2cccc3cccnc23)c(Cl)c1 | 1.1 µg/mL (≈ 3.31 µM)
116 | COc1ccc(OC)c(S(=O)(=O)NCc2ccccn2)c1 | > 46.3 µg/mL
117 | CNC(=S)N1CCn2cccc2C1c1cccnc1 (stereo not given) | 40.8 µg/mL (≈ 150 µM)
118 | COc1cccc(NC2=NCCCS2)c1 | > 33.3 µg/mL
119 | O=c1[nH]c(=O)n(-c2ccc(Br)cc2)c(O)c1C=NCCN1CCCCC1 | 60.5 µg/mL (≈ 144 µM)
120 | O=S(=O)(N1CCOCC1)N1CCOCC1 | > 35.4 µg/mL
